O=c1cc(-c2ccc(O)cc2)oc2cc(O)cc(O)c12
solubility (mole fraction)
Details | 298.2 K | 303.2 K | 308.2 K | 313.2 K | 318.2 K
in DMSO | 0.376 | 0.384 | 0.395 | 0.407 | 0.418
in ethanol | 0.00025 | 0.000314 | 0.000358 | 0.000426 | 0.000486
in ethyl acetate | 0.000241 | 0.000284 | 0.000326 | 0.000394 | 0.000446
in ethylene glycol | 0.00522 | 0.00573 | 0.00644 | 0.00732 | 0.00822
in isopropanol | 0.00038 | 0.000427 | 0.000485 | 0.000551 | 0.000629
in methanol | 0.000142 | 0.000172 | 0.000207 | 0.000249 | 0.000296
in n-butanol | 0.000562 | 0.00063 | 0.000713 | 0.000808 | 0.000918
in propylene glycol | 0.0101 | 0.0112 | 0.0124 | 0.0137 | 0.015
in sec-butanol | 0.000534 | 0.000603 | 0.000685 | 0.000781 | 0.00089
in transcutol | 0.334 | 0.345 | 0.357 | 0.371 | 0.383
in water | 1.04e-06 | 1.33e-06 | 1.73e-06 | 2.27e-06 | 3.08e-06

Details | solubility (mole fraction)
in PEG-400, 298.2 K | 0.397
in PEG-400, 303.2 K | 0.405
in PEG-400, 308.2 K | 0.413
in PEG-400, 313.2 K | 0.42
in PEG-400, 318.2 K | 0.427

Reference: BigSolDB 2.1
